The values below come from US20140227173A1, “CANCER TREATMENT WITH GAMMA-SECRETASE INHIBITORS” (The Johns Hopkins University, priority 2006, published 2014).

Structures are written as SMILES.

One experiment concerns neuroblastoma cell lines. Particulars: cited from earlier work.
The subject of a further experiment is D425Med. In words: Side population (Hoechst 33342 excretion) flow cytometry. It is filed as cell-based. On the procedure:
(§1) The ability to excrete Hoechst dye, which defines SP (also known as “side population”) in flow cytometric analyses, is another marker of tumor-initiating CSC in the blood and brain (7, 8, 20). SP was therefore analyzed to obtain a second measure of the effects of Notch on CSC.
(§2) Flow cytometric analysis of S-phase fraction and cell cycle kinetics was performed using a FACSCalibur (Becton Dickinson, San Jose, Calif.) with CELL Quest, version 3.3 software (15). CD133 studies were performed using the same instrument, with antibodies from Miltenyi (Miltenyi Biotec, Auburn, Calif.) according to the manufacturer's instructions. […] Prior to analysis, cells were washed and resuspended in 2 μg/ml PI (Sigma, St. Louis, Mo.). […] To ensure proper identification of SP cells, cells were incubated as above with the addition of 50 μM verapamil (Sigma).
(In general: Flow cytometry measures light scatter and fluorescence of single cells or particles in a stream.)

Another experiment has as its system D283Med. Described as above. It is filed as cell-based. On the procedure: as §1, §2
The next experiment has as its system DAOY. The description is as above. It is filed as cell-based. On the procedure:
as §1, §2

In the case of `O=C1c2c(O)ccc(O)c2C(=O)c2c(NCCNCCO)ccc(NCCNCCO)c21` [Mitoxantrone], the side population result in the experiment on neuroblastoma cell lines is on record as “increases the side population”.

Regarding `COc1ccc(CCN(C)CCCC(C#N)(c2ccc(OC)c(OC)c2)C(C)C)cc1OC` (stereo not shown) [verapamil, reference compound], the side population result in the experiment on D425Med and in the experiment with D283Med was “ablated” each time. In addition, the “Hoechst excretion (side population)” value in the experiment on DAOY is “abolished Hoechst excretion”.
